In patent US20140303164A1, “THERAPEUTIC COMPOUNDS” (Gilead Sciences, Inc., priority 2013, published 2014):

Columns and labels:
[1] = Test B: Cytotoxicity Assay; type: cell-based; conditions: human, uninfected MT-4 cells, same protocol as Test A
Method in brief: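 Uninfected MT-4 cells (2000 per well) incubated with diluted compound at 37° C. for 5 days, following the antiviral protocol without HIV-IIIb.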

HIV-IIIb = assay: Test A: Antiviral Assay in MT4 Cells; type: cell-based, HIV-1; conditions: Human immunodeficiency virus 1, IIIB, MT4, 120 h; for inhibition at 0.2 µM: read-out: % inhibition at 0.2 μM; for inhibition at 2 µM: read-out: % inhibition at 2 μM
Procedure: Test A: Antiviral Assay in MT4 Cells
MT-4 cells were next mixed with HIV-IIIb at an m.o.i of 0.003 for 1 hour, after which time 35 μL of virus/cell mixture (2000 cells) was immediately added to each well containing 40 μL of diluted compound. The plates were then incubated at 37° C. for 5 days. […] Cell lysis was carried out by incubating at room temperature for 10 min and then chemiluminescence was read.

CNc1nnc2c(-c3ccc(C#CC(C)(C)O)nc3[C@H](Cc3cc(F)cc(F)c3)NC(=O)Cn3nc(C(F)F)c4c3C(F)(F)[C@@H]3C[C@H]43)cccn12 [Compound 76F, 2-((3bS,4aR)-3-(difluoromethyl)-5,5-difluoro-3b,4,4a,5-tetrahydro-1H-cyclopropa[3,4]cyclopenta[1,2-c]pyrazol-1-yl)-N—((S)-2-(3,5-difluorophenyl)-1-(6-(3-hydroxy-3-methylbut-1-yn-1-yl)-3-(3-(methylamino)-[1,2,4]triazolo[4,3-a]pyridin-8-yl)pyridin-2-yl)ethyl)acetamide]
CC50 at 5 days [1]: 22.6 µM | inhibition at 0.2 µM (HIV-IIIb): 98% | inhibition at 2 µM (HIV-IIIb): 98%

Cn1nc(N)c2c(C#N)ccc(-c3ccc(C#CC(C)(C)O)nc3[C@H](Cc3cc(F)cc(F)c3)NC(=O)Cn3nc(C(F)F)c4c3C(F)(F)[C@@H]3C[C@H]43)c21 [Compound 77E, N—((S)-1-(3-(3-amino-4-cyano-1-methyl-1H-indazol-7-yl)-6-(3-hydroxy-3-methylbut-1-yn-1-yl)pyridin-2-yl)-2-(3,5-difluorophenyl)ethyl)-2-((3b-S,4aR)-3-(difluoromethyl)-5,5-difluoro-3b,4,4a,5-tetrahydro-1H-cyclopropa[3,4]cyclopenta[1,2-c]pyrazol-1-yl)acetamide]
CC50 at 5 days [1]: 11.8 µM | inhibition at 0.2 µM (HIV-IIIb): 96% | inhibition at 2 µM (HIV-IIIb): 97%

Cc1n[nH]c2cccc(-c3ccc(C#CC(C)(C)O)nc3[C@H](Cc3cc(F)cc(F)c3)NC(=O)Cn3nc(C(F)(F)F)c4c3C(F)(F)[C@@H]3C[C@H]43)c12 [Compound 79, 2-((3bS,4aR)-5,5-difluoro-3-(trifluoromethyl)-3b,4,4a,5-tetrahydro-1H-cyclopropa[3,4]cyclopenta[1,2-c]pyrazol-1-yl)-N—((S)-2-(3,5-difluorophenyl)-1-(6-(3-hydroxy-3-methylbut-1-yn-1-yl)-3-(3-methyl-1H-indazol-4-yl)pyridin-2-yl)ethyl)acetamide]
CC50 at 5 days [1]: 4.72 µM | inhibition at 0.2 µM (HIV-IIIb): 100% | inhibition at 2 µM (HIV-IIIb): 100%

CC(C)(O)C#Cc1ccc(-c2ccc(Cl)c(C(N)=O)c2)c([C@H](Cc2cc(F)cc(F)c2)NC(=O)Cn2nc(C(F)(F)F)c3c2C(F)(F)[C@@H]2C[C@H]32)n1 [Compound 80, 2-chloro-5-(2-((S)-1-(2-((3bS,4aR)-5,5-difluoro-3-(trifluoromethyl)-3b,4,4a,5-tetrahydro-1H-cyclopropa[3,4]cyclopenta[1,2-c]pyrazol-1-yl)acetamido)-2-(3,5-difluorophenyl)ethyl)-6-(3-hydroxy-3-methylbut-1-yn-1-yl)pyridin-3-yl)benzamide]
CC50 at 5 days [1]: 8.58 µM | inhibition at 0.2 µM (HIV-IIIb): 96% | inhibition at 2 µM (HIV-IIIb): 100%

CNc1nn(C)c2c(-c3ccc(C#CC(C)(C)O)nc3[C@H](Cc3cc(F)cc(F)c3)NC(=O)Cn3nc(C(F)F)c4c3C(F)(F)[C@@H]3C[C@H]43)ccc(Cl)c12 [Compound 81, N—((S)-1-(3-(4-chloro-1-methyl-3-(methylamino)-1H-indazol-7-yl)-6-(3-hydroxy-3-methylbut-1-yn-1-yl)pyridin-2-yl)-2-(3,5-difluorophenyl)ethyl)-2-((3bS,4aR)-3-(difluoromethyl)-5,5-difluoro-3b,4,4a,5-tetrahydro-1H-cyclopropa[3,4]cyclopenta[1,2-c]pyrazol-1-yl)acetamide]
CC50 at 5 days [1]: 12.5 µM | inhibition at 0.2 µM (HIV-IIIb): 100% | inhibition at 2 µM (HIV-IIIb): 100%

Cn1nc(NS(C)(=O)=O)c2c(Cl)ccc(-c3ccc(C#CC(C)(C)O)nc3[C@H](Cc3cc(F)cc(F)c3)NC(=O)Cn3nc(C(F)F)c4c3C(F)(F)CCC4(F)F)c21 [Compound 82, (S)—N-(1-(3-(4 chloro-1-methyl-3-(methylsulfonamido)-1H-indazol-7-yl)-6-(3-hydroxy-3-methylbut-1-yn-1-yl)pyridin-2-yl)-2-(3,5-difluorophenyl)ethyl)-2-(3-(difluoromethyl)-4,4,7,7-tetrafluoro-4,5,6,7-tetrahydro-1H-indazol-1-yl)acetamide]
CC50 at 5 days [1]: 9.7 µM | inhibition at 0.2 µM (HIV-IIIb): 99% | inhibition at 2 µM (HIV-IIIb): 99%

Cn1nc(NS(C)(=O)=O)c2c(Cl)ccc(-c3ccc(C#CC(C)(C)O)nc3[C@H](Cc3cc(F)cc(F)c3)NC(=O)Cn3nc(C(F)F)c4c3C3CC3CC4)c21 (stereo partly drawn) [Compound 83, N—((S)-1-(3-(4-chloro-1-methyl-3-(methylsulfonamido)-1H-indazol-7-yl)-6-(3-hydroxy-3-methylbut-1-yn-1-yl)pyridin-2-yl)-2-(3,5-difluorophenyl)ethyl)-2-(3-(difluoromethyl)-5,5a,6,6a-tetrahydrocyclopropa[g]indazol-1(4H)-yl)acetamide]
CC50 at 5 days [1]: 9.94 µM | inhibition at 0.2 µM (HIV-IIIb): 94% | inhibition at 2 µM (HIV-IIIb): 94%

COCC(=O)Nc1nn(C)c2c(-c3ccc(C#CC(C)(C)O)nc3[C@H](Cc3cc(F)cc(F)c3)NC(=O)Cn3nc(C(F)F)c4c3C(F)(F)[C@@H]3C[C@H]43)ccc(Cl)c12 [Compound 84, N—((S)-1-(3-(4-chloro-3-(2-methoxyacetamido)-1-methyl-1H-indazol-7-yl)-6-(3-hydroxy-3-methylbut-1-yn-1-yl)pyridin-2-yl)-2-(3,5-difluorophenyl)ethyl)-2-((3b-S,4aR)-3-(difluoromethyl)-5,5-difluoro-3b,4,4a,5-tetrahydro-1H-cyclopropa[3,4]cyclopenta[1,2-c]pyrazol-1-yl)acetamide]
CC50 at 5 days [1]: 8.73 µM | inhibition at 0.2 µM (HIV-IIIb): 100% | inhibition at 2 µM (HIV-IIIb): 100%

COCCC(=O)Nc1nn(C)c2c(-c3ccc(C#CC(C)(C)O)nc3[C@H](Cc3cc(F)cc(F)c3)NC(=O)Cn3nc(C(F)F)c4c3C(F)(F)[C@@H]3C[C@H]43)ccc(Cl)c12 [Compound 85, N-(4-chloro-7-(2-((S)-1-(2-((3b-S,4aR)-3-(difluoromethyl)-5,5-difluoro-3b,4,4a,5-tetrahydro-1H-cyclopropa[3,4]cyclopenta[1,2-c]pyrazol-1-yl)acetamido)-2-(3,5-difluorophenyl)ethyl)-6-(3-hydroxy-3-methylbut-1-yn-1-yl)pyridin-3-yl)-1-methyl-1H-indazol-3-yl)-3-methoxypropanamide]
CC50 at 5 days [1]: 7.85 µM | inhibition at 0.2 µM (HIV-IIIb): 96% | inhibition at 2 µM (HIV-IIIb): 96%

Cn1nc(NC(=O)C2CC2)c2c(Cl)ccc(-c3ccc(C#CC(C)(C)O)nc3[C@H](Cc3cc(F)cc(F)c3)NC(=O)Cn3nc(C(F)F)c4c3C(F)(F)[C@@H]3C[C@H]43)c21 [Compound 86, N-(4-chloro-7-(2-((S)-1-(2-((3b-S,4aR)-3-(difluoromethyl)-5,5-difluoro-3b,4,4a,5-tetrahydro-1H-cyclopropa[3,4]cyclopenta[1,2-c]pyrazol-1-yl)acetamido)-2-(3,5-difluorophenyl)ethyl)-6-(3-hydroxy-3-methylbut-1-yn-1-yl)pyridin-3-yl)-1-methyl-1H-indazol-3-yl)cyclopropanecarboxamide]
CC50 at 5 days [1]: 6.47 µM | inhibition at 0.2 µM (HIV-IIIb): 99% | inhibition at 2 µM (HIV-IIIb): 99%

Cn1nc(NC(=O)c2ccno2)c2c(Cl)ccc(-c3ccc(C#CC(C)(C)O)nc3[C@H](Cc3cc(F)cc(F)c3)NC(=O)Cn3nc(C(F)F)c4c3C(F)(F)[C@@H]3C[C@H]43)c21 [Compound 87, N-(4-chloro-7-(2-((S)-1-(2-((3b-S,4aR)-3-(difluoromethyl)-5,5-difluoro-3b,4,4a,5-tetrahydro-1H-cyclopropa[3,4]cyclopenta[1,2-c]pyrazol-1-yl)acetamido)-2-(3,5-difluorophenyl)ethyl)-6-(3-hydroxy-3-methylbut-1-yn-1-yl)pyridin-3-yl)-1-methyl-1H-indazol-3-yl)isoxazole-5-carboxamide]
CC50 at 5 days [1]: 6.8 µM | inhibition at 0.2 µM (HIV-IIIb): 95% | inhibition at 2 µM (HIV-IIIb): 96%

Cn1nc(NC(=O)CO)c2c(Cl)ccc(-c3ccc(C#CC(C)(C)O)nc3[C@H](Cc3cc(F)cc(F)c3)NC(=O)Cn3nc(C(F)F)c4c3C(F)(F)[C@@H]3C[C@H]43)c21 [Compound 88, N—((S)-1-(3-(4-chloro-3-(2-hydroxyacetamido)-1-methyl-1H-indazol-7-yl)-6-(3-hydroxy-3-methylbut-1-yn-1-yl)pyridin-2-yl)-2-(3,5-difluorophenyl)ethyl)-2-((3b-S,4aR)-3-(difluoromethyl)-5,5-difluoro-3b,4,4a,5-tetrahydro-1H-cyclopropa[3,4]cyclopenta[1,2-c]pyrazol-1-yl)acetamide]
CC50 at 5 days [1]: 8.49 µM | inhibition at 0.2 µM (HIV-IIIb): 100% | inhibition at 2 µM (HIV-IIIb): 100%

Cn1nc(NC(=O)C(C)(C)O)c2c(Cl)ccc(-c3ccc(C#CC(C)(C)O)nc3[C@H](Cc3cc(F)cc(F)c3)NC(=O)Cn3nc(C(F)F)c4c3C(F)(F)[C@@H]3C[C@H]43)c21 [Compound 89, N-(4-chloro-7-(2-((S)-1-(2-((3b-S,4aR)-3-(difluoromethyl)-5,5-difluoro-3b,4,4a,5-tetrahydro-1H-cyclopropa[3,4]cyclopenta[1,2-c]pyrazol-1-yl)acetamido)-2-(3,5-difluorophenyl)ethyl)-6-(3-hydroxy-3-methylbut-1-yn-1-yl)pyridin-3-yl)-1-methyl-1H-indazol-3-yl)-2-hydroxy-2-methylpropanamide]
CC50 at 5 days [1]: 7.77 µM | inhibition at 0.2 µM (HIV-IIIb): 95% | inhibition at 2 µM (HIV-IIIb): 95%

COC(=O)Nc1nn(C)c2c(-c3ccc(C#CC(C)(C)O)nc3[C@H](Cc3cc(F)cc(F)c3)NC(=O)Cn3nc(C(F)F)c4c3C(F)(F)[C@@H]3C[C@H]43)ccc(Cl)c12 [Compound 90D, methyl (4-chloro-7-(2-((S)-1-(2-((3b-S,4aR)-3-(difluoromethyl)-5,5-difluoro-3b,4,4a,5-tetrahydro-1H-cyclopropa[3,4]cyclopenta[1,2-c]pyrazol-1-yl)acetamido)-2-(3,5-difluorophenyl)ethyl)-6-(3-hydroxy-3-methylbut-1-yn-1-yl)pyridin-3-yl)-1-methyl-1H-indazol-3-yl)carbamate]
CC50 at 5 days [1]: 7.62 µM | inhibition at 0.2 µM (HIV-IIIb): 97% | inhibition at 2 µM (HIV-IIIb): 97%
